Where two headings read alike, the source gives them in different places.
What was measured:
[1] = molecular target: T1, 5-lipoxygenase (5-LO) (Oryctolagus cuniculus, UniProt G1SNX0); experiment: Radioisotopic assay of 5-LO activity (LTB4 formation from 14C-arachidonic acid) in rabbit peritoneal PMNL stimulated with A-23187; format: cell-based; conditions: for inhibition at 1 µM: rabbit peritoneal neutrophils (PMNL), mean ± s.d. of three experiments in duplicate, read-out: % Inhibition (percent inhibition of LTB4 formation); for in vitro 5-LO activity in words: peritoneal PMNL
T1 construct: Polymorphonuclear leukocytes (PMNLs) were purified from rabbits by glycogen-intraperitoneal elicited intraperitoneal recruitment; endogenous in cells; host or cells: rabbit peritoneal polymorphonuclear leukocytes (PMNL), glycogen-elicited
T1 sequence (G1SNX0 1-674): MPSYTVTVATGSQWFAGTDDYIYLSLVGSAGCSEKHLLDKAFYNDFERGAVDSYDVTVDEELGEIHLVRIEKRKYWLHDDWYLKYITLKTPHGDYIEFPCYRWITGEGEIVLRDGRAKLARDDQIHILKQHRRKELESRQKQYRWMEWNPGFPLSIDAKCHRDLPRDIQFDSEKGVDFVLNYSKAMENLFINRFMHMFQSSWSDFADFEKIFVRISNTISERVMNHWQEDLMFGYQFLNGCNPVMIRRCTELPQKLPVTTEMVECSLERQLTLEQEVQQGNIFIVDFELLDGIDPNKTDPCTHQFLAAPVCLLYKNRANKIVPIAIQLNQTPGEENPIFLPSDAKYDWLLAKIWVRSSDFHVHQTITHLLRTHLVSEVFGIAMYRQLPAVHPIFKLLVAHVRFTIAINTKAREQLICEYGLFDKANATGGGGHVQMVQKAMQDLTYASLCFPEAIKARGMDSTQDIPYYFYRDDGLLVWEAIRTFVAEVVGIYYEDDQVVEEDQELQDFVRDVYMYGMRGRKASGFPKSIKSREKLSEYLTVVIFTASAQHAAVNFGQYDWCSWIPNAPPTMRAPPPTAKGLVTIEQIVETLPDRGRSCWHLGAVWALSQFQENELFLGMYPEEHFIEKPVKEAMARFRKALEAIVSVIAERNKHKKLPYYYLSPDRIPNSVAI
Description: The 5-LO enzyme, which is found primarily in cells of myeloid origin such as polymorphonuclear leukocytes (“PMNL”), eosinophils, and macrophages, catalyzes the first step of the biochemical pathway in which arachadonic acid (“AA”) is,converted into LTA4. […] To test the inhibition of the quinone derivatives on the activity of 5-LO rabbit polymorphonuclear leucocytes (PMNLs) were used.
Polymorphonuclear leukocytes (PMNLs) were purified from rabbits by glycogen-intraperitoneal elicited intraperitoneal recruitment, as descrited in T. Yatabe et al., “Studies on 5-lipoxygenase inhibitors: I. Synthesis and 5-lipoxygenase inhibitory activity of novel hydroxanic acid derivatives,” chem. Pharm. Bull., vol. 46, pp. 966-972 (1998). An intraperitoneal injection of 300 mL of 0.1% (w/v) glycogen in sterile saline was administered 6 h before the rabbits were sacrificed by an intravascular injection of Nembutal. Peritoneal exudates were collected in 5 μM EGTA, and residual red cells were removed by lysis in ammonium chloride. These cell preparations were obtained with greater than 96% purity, as assessed by Wright-Giemsa staining and greater than 95% viability as assessed by Trypan blue exclusion.
PMNL cells in suspension were pre-incubated for 20 min at room temperature with ^14C-labeled arachadonic acid (AA) and diluted to 3000 cells μL^−1. Thereafter, the calcium ionophore A-23187 (1 μg/mL) was added to stimulate LTB4 production, and the cells further incubated for 15 min under stirring at 37° C. After incubation, the aqueous samples were successively shaken with a mixture of chloroform/methanol/formic acid (12:12:1) for 30 sec and then with chloroform for 10 sec. Organic phases containing LTB4, 5-HPETE (5-hydroperoxyeicosatetraenoic acid), diHPETEs (dihydroperoxyeicosatetraenoic acids), and prostaglandins (PGs) were pooled, evaporated to dryness under nitrogen and dissolved into a small amount of chloroform-MeOH (1:1). Separation of the 5-LO metabolites was performed by thin layer chromatography (TLC) on silica gel G plates developed in diethyl ether-hexane-acetic acid (60:40:1, v/v/v).
Bands containing 5-lipoxygenase (5-LO) metabolites were scraped from the TLC plates, and ^14C levels were quantitatively measured by liquid scintillation. 5-LO activity was an obtained from the amount of ^14C-arachidonic acid converted into LTB4 after the prelabeled PMNL cells were stimulated to produce LTB4 by the calcium ionophore as described above. IC50 was calculated as the concentration of the 5-LO antagonist that produced 50% inhibition of the metabolite conversion.
[…] IC50 values, calculated as theconcentration of test compound required to cause 50% inhibition of LTB4 formation, were also determined for some representative examples. […] These compounds, in general, correspond to compounds bearing the more lipophilic quinone fragments. […] See S. Ohkawa et al., “Dual Inhibition of Thromboxane A2 Synthetase and 5-Lipoxygenase with Scavenging Activity of Active Oxygen Species. Synthesis of a Novel Series of (3-Pyridylmethyl)benzoquinone Derivatives,” J. Med. Chem., vol. 34, pp. 267-276 (1991).

[2] = system: arachidonic acid-induced ear inflammation in mice; experiment: Arachidonic acid-induced ear inflammation in mice (AAE test); format: in vivo; conditions: for change in vivo at 50 µg/ear / change in vivo at 100 µg/ear / change in vivo at 250 µg/ear: Mus musculus, mice, topical, read-out: % inhibition of AA-induced ear inflammation; for change in vivo at 50 µg/ear: 50 μg/ear; for change in vivo at 100 µg/ear: 100 μg/ear; for change in vivo at 250 µg/ear: 250 μg/ear
[3] = molecular target: COX-1 (Homo sapiens, UniProt P23219); experiment: In vitro inhibition of COX-1 activity; conditions: read-out: COX-1 percent inhibition
Description: (§1) Percent inhibition mean values ±SD from at least three individual determinations are shown.

[4] = molecular target: T2, COX-2 (Homo sapiens, UniProt P35354); experiment: In vitro inhibition of COX-2 activity; conditions: read-out: COX-2 percent inhibition
T2 sequence (P35354 18-604): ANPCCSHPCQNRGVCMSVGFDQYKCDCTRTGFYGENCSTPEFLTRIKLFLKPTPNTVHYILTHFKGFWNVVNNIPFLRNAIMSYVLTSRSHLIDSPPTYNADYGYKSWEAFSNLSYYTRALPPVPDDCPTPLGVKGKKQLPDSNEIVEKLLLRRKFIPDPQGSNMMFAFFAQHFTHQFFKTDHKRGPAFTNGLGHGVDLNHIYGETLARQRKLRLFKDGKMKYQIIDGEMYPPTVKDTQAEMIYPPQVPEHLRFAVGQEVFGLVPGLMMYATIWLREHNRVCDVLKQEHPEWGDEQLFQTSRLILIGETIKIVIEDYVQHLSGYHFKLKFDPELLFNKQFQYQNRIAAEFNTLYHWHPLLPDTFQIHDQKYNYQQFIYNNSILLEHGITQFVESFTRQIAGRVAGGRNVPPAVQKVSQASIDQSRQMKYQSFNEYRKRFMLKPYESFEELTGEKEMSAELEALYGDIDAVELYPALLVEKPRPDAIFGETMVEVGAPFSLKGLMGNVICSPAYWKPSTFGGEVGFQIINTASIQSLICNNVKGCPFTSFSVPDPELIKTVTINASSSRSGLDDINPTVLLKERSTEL
Description: as §1

[5] = molecular target: T3, 5-LO (Rattus norvegicus, UniProt P12527); experiment: 5-LO inhibition by radioimmunoassay (RIA) in rat peritoneal PMNL; conditions: inhibitors at 'AM final concentration' [sic], mean ± SD
T3 sequence (P12527 1-673): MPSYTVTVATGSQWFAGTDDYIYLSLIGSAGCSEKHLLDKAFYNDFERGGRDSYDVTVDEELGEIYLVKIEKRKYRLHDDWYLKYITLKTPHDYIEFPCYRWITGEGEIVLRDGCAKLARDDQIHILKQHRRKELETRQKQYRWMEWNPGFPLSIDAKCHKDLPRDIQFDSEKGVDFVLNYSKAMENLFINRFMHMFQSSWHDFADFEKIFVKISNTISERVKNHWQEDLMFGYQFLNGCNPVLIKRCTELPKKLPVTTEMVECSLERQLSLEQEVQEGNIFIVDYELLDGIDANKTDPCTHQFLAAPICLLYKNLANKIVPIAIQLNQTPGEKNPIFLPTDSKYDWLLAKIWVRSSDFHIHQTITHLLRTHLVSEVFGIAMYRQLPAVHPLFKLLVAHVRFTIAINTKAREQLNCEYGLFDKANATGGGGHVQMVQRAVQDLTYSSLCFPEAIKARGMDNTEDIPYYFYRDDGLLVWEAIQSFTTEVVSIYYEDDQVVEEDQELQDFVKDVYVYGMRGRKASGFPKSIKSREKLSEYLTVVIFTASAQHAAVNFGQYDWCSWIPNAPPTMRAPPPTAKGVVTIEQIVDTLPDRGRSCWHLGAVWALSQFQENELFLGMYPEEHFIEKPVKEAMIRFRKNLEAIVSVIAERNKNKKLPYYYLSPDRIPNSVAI
Description: as §1

[6] = measured on PMNL, read-out: IC50 (concentration causing 50% inhibition of LTB4 formation), in parentheses (converted)

Chain of COX-1 (P23219 24-599): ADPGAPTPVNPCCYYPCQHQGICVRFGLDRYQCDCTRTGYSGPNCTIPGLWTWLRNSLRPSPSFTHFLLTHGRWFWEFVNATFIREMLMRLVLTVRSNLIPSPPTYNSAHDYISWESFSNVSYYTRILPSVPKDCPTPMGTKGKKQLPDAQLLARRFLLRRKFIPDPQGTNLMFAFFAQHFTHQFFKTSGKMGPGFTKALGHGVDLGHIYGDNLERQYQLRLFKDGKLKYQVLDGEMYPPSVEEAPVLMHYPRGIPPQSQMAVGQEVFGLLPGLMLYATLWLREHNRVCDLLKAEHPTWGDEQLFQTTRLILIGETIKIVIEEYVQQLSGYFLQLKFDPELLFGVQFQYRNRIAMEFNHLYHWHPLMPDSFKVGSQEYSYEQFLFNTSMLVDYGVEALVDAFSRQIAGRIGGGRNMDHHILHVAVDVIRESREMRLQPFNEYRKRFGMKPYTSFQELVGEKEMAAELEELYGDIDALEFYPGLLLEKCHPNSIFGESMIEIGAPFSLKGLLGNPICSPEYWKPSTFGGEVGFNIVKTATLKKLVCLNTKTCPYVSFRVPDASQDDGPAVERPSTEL

| IC50 ([1]; PMNL, read-out: IC50 (5-LO, LTB4 formation)) [nM] | inhibition at 1 µM [1] [%] | in vitro 5-LO activity in words [1] | melting point [°C] | inhibition at 500 µM [3] [%] | inhibition at 500 µM [4] [%] | 5-LO percent inhibition [5] [%] | IC50 [1, 6] [nM] | SMILES | % inhibition (AAE test) ([2]; 4c 100 mg (ear) as printed, alone or co-applied with Indomethacin) [%] | change in vivo at 50 µg/ear [2] [%] | change in vivo at 100 µg/ear [2] [%] | change in vivo at 250 µg/ear [2] [%] |
| --- | --- | --- | --- | --- | --- | --- | --- | --- | --- | --- | --- | --- |
| 18 | 94 | potent in vitro 5-LO inhibitors | 137 to 139 | 5.2 ± 6.2 | 20.1 ± 0.7 | 85.8 ± 13.1 | – | CC1=CC(=O)C(Nc2ccccn2)=CC1=O [Compound 4c, 2-Methyl-5-(pyridin-2-ylamino)-[1,4]benzoquinone] | 66 | -52.8 ± 6.4 | -63.7 ± 3.9 | -84.9 ± 2.4 |
| – | 92 ± 4.7 | potent in vitro 5-LO inhibitors | 79 to 81 | 11.2 ± 2.7 | 9.4 ± 0.4 | 95.4 ± 4.0 | 155 | COC1=C(OC)C(=O)C(Nc2ccccn2)=C(C)C1=O [Compound 4e, 2,3-Dimethoxy-5-methyl-6-(pyridin-2-ylamino)-[1,4]benzoquinone] | – | – | – | – |
| – | 100 ± 0.4 | potent in vitro 5-LO inhibitors | 205 to 206 | 23.1 ± 4.6 | 16.5 ± 6.1 | 86.2 ± 10.0 | 45 | O=C1C=C(Nc2ccccn2)C(=O)c2ccccc21 [Compound 4i, 2-(Pyridin-2-ylamino)-[1,4]naphthoquinone] | – | – | -20.4 ± 2.1 | – |
| – | 100 ± 0.5 | potent in vitro 5-LO inhibitors | 243 to 244 | 16.8 ± 1.4 | 8 ± 3.6 | 85.5 ± 4.5 | 142 | O=C1C=C(Nc2ccc(Br)cn2)C(=O)c2ccccc21 [Compound 4l, 2-(5-Bromopyndin-2-ylamino)-[1,4]naphthoquinone] | – | – | -42.2 ± 3.1 | -30.6 ± 2.2 |
| – | 62 ± 1.7 | – | 172 to 174 | 8.4 ± 6.4 | 0 | 90.4 ± 3.3 | – | CC1=CC(=O)C(Nc2ncccn2)=CC1=O [Compound 4p, 2-Methyl-5-(pyrimidin-2-ylamino)-[1,4]benzoquinone] | – | – | – | – |
| – | 98 ± 1.1 | potent in vitro 5-LO inhibitors | 245 to 247 | 14.4 ± 1.3 | 6.6 ± 14.9 | 96.4 ± 1.9 | 165 | O=C1C=C(Nc2ncccn2)C(=O)c2ccccc21 [Compound 4r, 2-(Pyrimidin-2-ylamino)-[1,4]naphthoquinone] | – | – | -40 ± 1.9 | -29 ± 1.8 |
| – | 96 ± 1.7 | potent in vitro 5-LO inhibitors | 188 to 189 | 8.4 ± 11.6 | 3.3 ± 12.9 | 89.6 ± 2.3 | 175 | CC1=C(C)C(=O)C(Nc2nc(C)cc(C)n2)=CC1=O [Compound 4s, 2,3-Dirnethyl-5-(4,6-dimethylpyfimidin-2-ylamino)-[1,4]benzoquinone] | – | -17.3 ± 1.1 | -33.9 ± 3.9 | – |
| – | 98 ± 1.3 | potent in vitro 5-LO inhibitors | 196 to 197 | 8.2 ± 2.5 | 0 | 86.3 ± 3.0 | 161 | Cc1cc(C)nc(NC2=CC(=O)c3ccccc3C2=O)n1 [Compound 4t, 2-(4,6-Dimethylpyrimidin-2-ylamino)-[1,4]naphthoquinone] | – | -3.3 ± 1.6 | – | – |

From US6653311B1, “5-lipoxygenase inhibitors: (2-azinylamino) quinone derivatives” (Board of Supervisors of Louisiana State University, priority 2002, dated 2003)
